Assay results from patent publication US5932483A, “Synthetic peptide and its uses” (Northwestern University, priority 1996, dated 1999).
pIC50: −log10 of the molar value. “And” between values parts separate entries of the source, which are not always exact repeats. Equal values may be shown once. Read-outs that look alike come from different tables or passages of the source. No end group written: not given here.

How the values were obtained:
[1] = system: binding of rabbit Ig-HRP by solid phase Protein A; assay: Inhibition of binding of Ig-HRP to solid phase Protein A
Procedure: Protein A (recombinant Protein A from Repligen, Cambridge, Mass.) diluted to 1 μg/ml in coating buffer (0.1M NaHCO3, pH 9.0) was incubated in the wells of a microtiter plate (100 μl per well) for 2 hours at 37° C. Uncoated surfaces of the wells were blocked by adding 340 μl PBSC (9 mM Na2 HPO4, 1 mM NaH2 PO4, pH 7.2, 154 mM NaCl, 1 mg/ml casein or ovalbumin, and 0.01% thimerosal), incubating the plate 1 hour at 37° C., and then washing the wells 3 times with PBSCT (PBSC plus 0.1% Tween 20 (polyoxyethylene sorbitan monolaurate)). Dilutions of rabbit immunoglobulin labeled with horseradish peroxidase (Ig-HRP) (Zymed Laboratories, Inc., South San Francisco, Calif.) in PBS (9 mM Na2 HPO4, 1 mM NaH2 PO4, pH 7.2, 154 mM NaCl) were incubated in the wells (100 μl per well) for 2 hours at 37° C. followed by washing 3 times with PBS. OPD substrate buffer (0.8 mg/ml o-phenylenediamine, 0.1M Na2 HPO4, 0.05M sodium citrate, pH 5.5, plus 0.15% (v/v) H2 O2) was then added to the wells (100 μl/well), and the resultant colored product was measured with a Titertek Multiskan plate reader using a 414 nm filter.
OPD substrate buffer was then added (100 μl/well), and the resulting colored product was measured at 414 nm in a Titertek Multiskan plate reader.
8. […] Then the inhibition assay using solid phase Protein A was performed as described above.

[2] = system: binding of rabbit Ig-HRP to solid phase C1q; assay: Inhibition of binding of Ig-HRP to solid phase C1q
Procedure: C1q (gift of Dr. Lawrence Potempa, Immtech International Inc., Evanston, Ill.) diluted to 10 μg/ml in coating buffer was placed in the wells of a microtiter plate (100 μl/well) and incubated for 2 hours at 25° C. The uncoated surfaces of the wells were blocked by adding 340 μl PBSC and incubating the plate for 1 hour at 25° C., followed by washing 3 times with PBSC. Dilutions of Ig-HRP in C1q buffer (50 mM Tris, pH 7.2, 27 mM NaCl, 1 mM CaCl2, 0.01% (wt/v) Thimerosal) were incubated in the wells (100 μl/well) for 1 hour at 25° C. followed by washing 3 times with C1q buffer. OPD substrate buffer was then added (100 μl/well), and the colored product was measured at 414 nm in a Titertek Multiskan plate reader.
C1q was coated onto the surface of the wells of a microtiter plate as described in Part C. […] OPD substrate buffer (100 μl/well) was then added and the colored product measured at 414 nm in a Titertek Mutiskan plate reader.

[3] = system: PAP binding to solid phase CBP2; assay: Elution or inhibition of PAP binding to the CBP2 column by solution peptide; design: species or system rabbit; settings: for PAP binding to solid phase CBP2 after pre-incubation with peptide: 0.1 mM peptide, 1 hour 25° C., PAP 20 μg/ml; for elution of bound PAP from CBP2 column by peptide wash: 3 ml of 336.2 μg/ml CBP2 or equimolar LHRH
Procedure: An additional 6 ml of C1q buffer was used to wash the column followed by 3 ml of 2% (v/v) acetic acid and then with 6 ml of C1q buffer to completely wash the column.
The sample was then eluted with 21 ml C1q buffer followed by 3 ml of 2% (v/v) acetic acid and then 6 ml C1q buffer. The column fractions were assayed for the presence of peroxidase as described above in Part A, and the concentration of PAP was calculated from the standard curve data.
This was not the case, however, since similar concentrations were used for column elution as for the pre-incubation studies. […] Thus, the effect of aggregates, if they formed, was of little significance.

[4] = target: T1, HRP enzyme (Armoracia rusticana, UniProt P00433); assay: Control: effect of CBP2 on the HRP enzyme; assay type: biochemical, horseradish; settings: 50 μM CBP2, 3 hours 37° C.
T1 construct: purchased Zymed Laboratories, Inc
Procedure: 1. […] Aliquots of 100 μl were placed in the wells of a microtiter plate and an equal volume of OPD substrate buffer was added, and the colored product was measured at 414 nm.

[5] = system: sensitized sheep erythrocytes (SRBCs), human serum as complement; assay: Sheep red blood cell lysis assay (SRBC assay); assay type: cell-based
[6] = system: pig aorta endothelial cells (PAECs), human serum; assay: Chromium release assay (PAEC assay); assay type: cell-based
Procedure: Culture plates (Falcon 24-well plates, Becton Dickinson, Lincoln Park, N.J.) were coated by addition of 0.5 ml/well of 2% gelatin (Type B, from bovine skin, Sigma Chemical Co.) diluted 1:10 in Hanks buffered salt solution (Gibco BRL, Grand Island, N.Y.), followed by incubation for 15 min at room temperature. The gelatin solution was removed, and 125×10^3 pig aorta endothelial cells (PAECs, Cell Systems, Kirkland, Wash.) in 2 ml of cell culture medium (CCM, Dulbecco's modified Eagle's medium (DMEM) with high glucose (Gibco BRL) containing 20% defined fetal bovine serum (FBS, HyClone Laboratories, Logan, Utah) that had been heat inactived for 30 min at 56° C., 1%(v/v) L-glutamine (200 mM, Gibco BRL) and penicillin G sodium (10,000 units/ml)/streptomycin sulfate (10,000 μg/ml in 0.85% saline, Gibco BRL)] were added per well. The plate was centrifuged in a model GS-6R Beckman table top centrifuge at 20×g for 2 min with the brake off to settle the cells onto the gelatin in a even monolayer, after which the plate was incubated at 37° C. in 5% CO2 -95% air. After 4 hours, cell attachment had occurred, and the CCM was removed and replaced with 2 ml of fresh CCM. In 2-4 days the PAECs had grown to 80-100% confluence and were used in the complement mediated chromium release assay.
The PAECs were washed 3 times with 1 ml of serum free medium (SFM), leaving the SFM on the cells for 5 min each time. Chromium radioisotope (^51 Cr, NaCrO4, Amersham Corp., Arlington Heights, Ill.) was diluted in SFM to give 40 μCi/ml, and 100 μl were added to each well of the PAEC culture plate. The plate was incubated for 2 hours at 37° C. in 5% CO2 -95% air. The wells were washed three times with 1 ml of SFM. Then, 1 ml of PBS was added to each well, and the plate was incubated at 37° C. for 30 min to help reduce ^51 Cr background.
The various peptide inhibitors (diluted in SFM) were added (300 μl/well) and incubated with the PAECs at 37° C. for 30 min. Undiluted human serum (HS, 100 μl) or 100 μl of heat inactivated human serum (HIHS) was added to each well, and the plate was incubated at 37° C. for 1 hour. Supernatant (200 μl) was removed from each well and added to 200 μl of scintillation cocktail (OptiPhase `Supermix`, Wallac Inc., Turku, Finland) previously added to each well of a 24-well polyethylene terephtalate reading plate (Wallac Inc.), and the plate was sealed with an acetate plate sealer (Dynatech Laboratories, Chantilly, Va.). The reading plate was placed on a shaker for 5 min to obtain a homogeneous mixture. Radioactivity (CPMs) of the wells was counted for 2 min using the 1450 MicroBeta PLUS plate reader (Wallac Inc.).
Total counts of ^51 Cr were determined from 200 μl aliquots taken from the wells to which 100 μl of 5% Triton X-100 (Sigma Chemical Co.) had been added. Total complement mediated lysis was determined from wells treated with HS alone, and background counts were determined from wells treated with HI-HS alone or with peptide alone (no HS). The average background was subtracted from all well counts, and the percent inhibition calculated as total lysis minus lysis with inhibitor/total lysis multiplied by 100. All experimental points were obtained in triplicate, and the data were analyzed in the same manner as the data from the SRBC assays.

[7] = system: human C1q binding to PAECs; assay: Immunohistochemical staining of PAECs for binding of human C1q; assay type: cell-based; settings: CBP2 1.2 mM
Procedure: PAECs (1×10^4) in 1 ml of CCM were added to each well of a 4-chamber culture slide (Labtek, Nunc, Naperville, Ill.), and the cells were grown to confluence (incubation for 3 days at 37° C. in 5% CO2 -95% air). The medium was removed, and the slide was washed with PBS (10 mM phosphate buffered saline, pH 7.4, containing 120 mM NaCl and 2.7 mM KCl, Sigma Chemical Co.) in a swirling motion for 5 sec. This was repeated with distilled water and 100% ethanol. The slide was tapped dry and immersed in pre-chilled (-20° C.) acetone for 20 min and then air dried.
HI-HS was added to the wells, and the slide was incubated for 15 min at 37° C. to allow human IgG and IgM antibodies to bind to PAEC epitopes. The HI-HS was removed, and the wells were washed 3 times with PBS. C1q or C1q plus peptide in PBS containing 1% bovine serum albumin (BSA, Sigma Chemical Co.) (PBSA) was then added, and the slide was incubated for 15 min at room temperature. The solutions were removed, and the wells were washed 3 times with PBS. Blocking serum was added [10% donkey serum (The Binding Site, Birmingham, England) in PBS], and the slide was incubated for 20 minutes at room temperature. […] Staining of the cells was analyzed on a Zeiss Axioskop (Carl Zeiss, Oberkochen, Germany) with a wide band FITC filter.

[8] = system: guinea pig hearts transplanted into C6 deficient PVG rats; assay: Heterotopic heart transplantation; assay type: in vivo, rat; settings: pump 2ML4 (15.6 mg CBP2) plus i.v. 15.6 mg on day 2; 2 rats, individual values
Procedure: Four to six week old guinea pigs (GP, Harlan, Indianapolis, Ind.) hearts were transplanted into C6 deficient PVG rats (B&K, Kent, Wash.) by a modification of the technique described by Ono and Lindsay (Journal of Thoracic Cardiovascular Surgery, 57, 225, 1969). Seven of the rats receiving GP hearts were not treated, 8 additional rats receiving GP hearts were treated with a single pre-transplant intravenous injection of a 3 ml cocktail of CBP3 [SEQ ID NO:4] (0.67 mg/ml) and 1.03 mg/ml of AEK [SEQ ID NO:5]. CBP3, 15.4 mg, was dissolved in 1.1 ml of 60% DMF in H2 O and AEK, 10 mg, was dissolved on 0.5 ml H2 O. Two hundred μl of CBP3 and 100 μl of AEK were added to 2.7 ml of 1:5 diluted (in PBS) heat-inactivated PVG C6 deficient rat serum. The GP transplanted hearts were monitored several times daily, and the times noted when the hearts stopped beating.
Two additional PVG C6 deficient rats were transplanted with GP hearts.
In a separate experiment, two C6 deficient PVG rats were transplanted with GP hearts.

[9] = same concentration range as CBP2
[10] = highest concentration (1 mM) tested

Chain of PAP binding to solid phase CBP2 (P01870 whole entry): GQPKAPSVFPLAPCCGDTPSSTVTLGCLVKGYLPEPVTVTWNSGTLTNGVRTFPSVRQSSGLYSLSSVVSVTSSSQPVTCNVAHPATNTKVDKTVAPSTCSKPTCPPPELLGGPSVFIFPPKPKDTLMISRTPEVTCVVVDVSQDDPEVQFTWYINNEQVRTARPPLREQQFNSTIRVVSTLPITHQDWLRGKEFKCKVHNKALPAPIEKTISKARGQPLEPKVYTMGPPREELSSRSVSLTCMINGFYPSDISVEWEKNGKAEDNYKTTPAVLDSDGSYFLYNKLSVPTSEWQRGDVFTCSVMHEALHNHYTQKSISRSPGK
T1 sequence (P00433 31-338 limits assumed): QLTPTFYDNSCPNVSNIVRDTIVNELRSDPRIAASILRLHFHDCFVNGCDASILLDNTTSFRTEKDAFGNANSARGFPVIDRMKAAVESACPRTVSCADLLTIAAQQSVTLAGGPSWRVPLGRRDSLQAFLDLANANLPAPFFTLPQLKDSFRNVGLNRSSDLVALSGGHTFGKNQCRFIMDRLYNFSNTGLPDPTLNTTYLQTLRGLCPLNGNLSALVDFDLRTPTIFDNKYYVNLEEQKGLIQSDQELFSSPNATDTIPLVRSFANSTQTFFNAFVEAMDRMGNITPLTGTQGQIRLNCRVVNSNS
T1 sequence (P01870 whole entry partner): as the sequence (P01870 whole entry) above
T1 sequence (P01840 whole entry partner): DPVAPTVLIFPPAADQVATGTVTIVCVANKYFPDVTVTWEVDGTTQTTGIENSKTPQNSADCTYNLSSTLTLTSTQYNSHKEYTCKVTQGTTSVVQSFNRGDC

## luteinizing hormone releasing hormone [LHRH, reference compound]
[1]; [9]
  Protein A inhibitory activity: no Protein A or C1q inhibitory activity
[2]; [9]
  C1q inhibitory activity: no Protein A or C1q inhibitory activity
[3]
  PAP binding to solid phase CBP2 after pre-incubation with peptide: PAP binding to the column in the range normally observed
  elution of bound PAP from CBP2 column by peptide wash: no significant elution of PAP

## LEQGENVFLQATLLC [CBP2, C1q B chain residues 189-200 plus Leu Leu Cys at the carboxyl terminus]
[1]
  inhibition of Protein A binding of Ig-HRP (maximum): ~100%
[1]; 4 mg/ml DTT, 2 hours 37° C., solid phase Protein A
  effect of DTT on the inhibitory activity of CBP2: no effect
[1]; Ig-HRP 1:5000 in PBS, preincubated 1 hour 37° C., read-out: concentration at 50% inhibition of Protein A binding of Ig-HRP
  pIC50: ~6.00
[2]; Ig-HRP 1:100 in C1q buffer, 25° C., read-out: 50% inhibition concentration, Ig-HRP binding to solid phase C1q
  pIC50: ~5.00
[4]
  effect on the HRP enzyme: did not inhibit the HRP enzyme
[3]
  PAP binding to solid phase CBP2 after pre-incubation with peptide: dramatic loss of PAP binding
  elution of bound PAP from CBP2 column by peptide wash: small but significant PAP peak which was eluted from the column
[3]; PAP pre-incubated with 156 μg/ml CBP2
  inhibition of PAP binding to CBP2 column: approximately 40%
[5]; 31 μM
  % Inhibition SRBC Assay +/- S.D.: 0.0 +/- 0.0%
[5]; 62.5 μM
  % Inhibition SRBC Assay +/- S.D.: 13.5% and 13.5 +/- 9.3%
[5]; 125 μM
  % Inhibition SRBC Assay +/- S.D.: 45.2 +/- 30.8%
[5]; 250 μM
  % Inhibition SRBC Assay +/- S.D.: 78.0 +/- 18.3%
[5]; 1000 μM
  % Inhibition SRBC Assay +/- S.D.: 97.4 +/- 2.7%
[6]; 31 μM
  % Inhibition PAEC Assay +/- S.D.: 2.0 +/- 3.1%
[6]; 62.5 μM
  % Inhibition PAEC Assay +/- S.D.: 10.6% and 10.6 +/- 13.5%
[6]; 125 μM
  % Inhibition PAEC Assay +/- S.D.: 25.0 +/- 14.8%
[6]; 250 μM
  % Inhibition PAEC Assay +/- S.D.: 64.4 +/- 8.4%
[6]; 500 μM
  % Inhibition PAEC Assay +/- S.D.: 87.2% and 87.2 +/- 3.8%
[7]
  C1q binding to PAECs (immunohistochemical staining): only trace binding of C1q
[8]
  Graft Survival: 4 days and 5 days

## Ac-AEAKAKA-NH2 [AEK, Ac-Ala Glu Ala Lys Ala Lys Ala-NH2]
[5]; [10]
  inhibitory activity in the SRBC assay: no inhibitory activity
[6]; [10]
  inhibitory activity in the PAEC assay: no inhibitory activity

## Protein A: recombinant Protein A from Repligen, positive control in solution phase [reference compound]
[1]; Ig-HRP binding to solid phase Protein A, read-out: 50% inhibition concentration for solution phase Protein A
  pIC50: 9.00

## C1q: complement component C1q, gift of Immtech International, liquid phase positive control
[2]; read-out: 50% inhibition concentration for liquid phase C1q inhibiting solid phase C1q
  pIC50: ~8.00
